# ChEMBL document CHEMBL1201862, “PubChem BioAssay data set” (2004)
#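 Cultured in 96-well plates, cells were exposed to test compound for 48 hours across five concentrations. Abbreviation: GI50, concentration required for 50% inhibition of growth.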 Calls of active or inactive are those of the source. No stated cut-off is given here; in the data, active = GI50 up to about 1.1 µM and inactive = higher.
# Columns and labels:
# Experiment in all cases: NCI-60 cell line screen, 48 h
# SW-620 = test system: SW-620
# UACC-62 = test system: UACC-62
# T47D = test system: T47D
# NCI/ADR-RES = test system: NCI/ADR-RES
# PC-3 = test system: PC-3
# UACC-257 = test system: UACC-257
# M14 = test system: M14
# SF-295 = test system: SF-295
# HT-29 = test system: HT-29
# LOX IMVI = test system: LOX IMVI
# MDA-MB-231 = test system: MDA-MB-231
# Malme-3M = test system: Malme-3M
# SF-539 = test system: SF-539
# ACHN = test system: ACHN
# NCI-H226 = test system: NCI-H226
# BT-549 = test system: BT-549
# HOP-92 = test system: HOP-92
# SF-268 = test system: SF-268
# A549 = test system: A549
# DU-145 = test system: DU-145
# SNB-75 = test system: SNB-75
# Hs-578T = test system: Hs-578T
# HCT-15 = test system: HCT-15
# NCI-H23 = test system: NCI-H23
# MOLT-4 = test system: MOLT-4
# K562 = test system: K562
# OVCAR-4 = test system: OVCAR-4
# OVCAR-3 = test system: OVCAR-3
# TK-10 = test system: TK-10
# UO-31 = test system: UO-31
# IGROV-1 = test system: IGROV-1
# SK-MEL-2 = test system: SK-MEL-2
# SNB-19 = test system: SNB-19
# SK-MEL-28 = test system: SK-MEL-28
# NCI-H522 = test system: NCI-H522
# SK-MEL-5 = test system: SK-MEL-5
# SN12C = test system: SN12C
# SR = test system: SR
# MDA-MB-435 = test system: MDA-MB-435
# EKVX = test system: EKVX
# MCF7 = test system: MCF7
# U-251 = test system: U-251
# SK-OV-3 = test system: SK-OV-3
# RXF 393 = test system: RXF 393
# A498 = test system: A498
# HCC 2998 = test system: HCC 2998
# NCI-H460 = test system: NCI-H460
# CAKI-1 = test system: CAKI-1
# KM12 = test system: KM12
# CCRF-CEM = test system: CCRF-CEM
# RPMI-8226 = test system: RPMI-8226
# OVCAR-5 = test system: OVCAR-5
# HCT-116 = test system: HCT-116
# OVCAR-8 = test system: OVCAR-8
# COLO 205 = test system: COLO 205
# 786-0 = test system: 786-0
# HOP-62 = test system: HOP-62
# HL-60 = test system: HL-60
compound,measurement,setting,value
COc1cc2c(cc1O)NC(=O)[C@@H]1C[C@@H](O)CN1C2=O,GI50,SW-620,64.3 µM (inactive)
same,GI50,UACC-62,> 100 µM (inactive)
same,GI50,T47D,> 100 µM (inactive)
same,GI50,NCI/ADR-RES,11.4 µM (inactive)
same,GI50,PC-3,43.8 µM (inactive)
same,GI50,UACC-257,> 100 µM (inactive)
same,GI50,M14,72.1 µM (inactive)
same,GI50,SF-295,27 µM (inactive)
same,GI50,HT-29,72.6 µM (inactive)
same,GI50,LOX IMVI,40.2 µM (inactive)
same,GI50,MDA-MB-231,> 100 µM (inactive)
same,GI50,Malme-3M,> 100 µM (inactive)
same,GI50,SF-539,43.8 µM (inactive)
same,GI50,ACHN,74.6 µM (inactive)
same,GI50,NCI-H226,> 100 µM (inactive)
same,GI50,BT-549,86.1 µM (inactive)
same,GI50,HOP-92,> 100 µM (inactive)
same,GI50,SF-268,88.1 µM (inactive)
same,GI50,A549,> 100 µM (inactive)
same,GI50,DU-145,> 100 µM (inactive)
same,GI50,SNB-75,> 100 µM (inactive)
same,GI50,Hs-578T,43.8 µM (inactive)
same,GI50,HCT-15,50.7 µM
same,GI50,NCI-H23,> 100 µM (inactive)
same,GI50,MOLT-4,37.6 µM (inactive)
same,GI50,K562,57.7 µM (inactive)
same,GI50,OVCAR-4,> 100 µM (inactive)
same,GI50,OVCAR-3,29.2 µM (inactive)
same,GI50,TK-10,> 100 µM (inactive)
same,GI50,UO-31,64.4 µM (inactive)
same,GI50,IGROV-1,> 100 µM (inactive)
same,GI50,SK-MEL-2,> 100 µM (inactive)
same,GI50,SNB-19,> 100 µM (inactive)
same,GI50,SK-MEL-28,> 100 µM (inactive)
same,GI50,NCI-H522,33.8 µM (inactive)
same,GI50,SK-MEL-5,58.1 µM (inactive)
same,GI50,SN12C,> 100 µM (inactive)
same,GI50,SR,39.9 µM (inactive)
same,GI50,MDA-MB-435,91.6 µM (inactive)
same,GI50,EKVX,> 100 µM (inactive)
same,GI50,MCF7,> 100 µM (inactive)
same,GI50,U-251,79.3 µM (inactive)
same,GI50,SK-OV-3,> 100 µM (inactive)
same,GI50,RXF 393,> 100 µM (inactive)
same,GI50,A498,> 100 µM (inactive)
same,GI50,HCC 2998,> 100 µM (inactive)
same,GI50,NCI-H460,72.4 µM (inactive)
same,GI50,CAKI-1,78 µM (inactive)
same,GI50,KM12,53.6 µM (inactive)
same,GI50,CCRF-CEM,28.4 µM (inactive)
same,GI50,RPMI-8226,45.6 µM (inactive)
same,GI50,OVCAR-5,> 100 µM (inactive)
same,GI50,HCT-116,49 µM (inactive)
same,GI50,OVCAR-8,98.2 µM (inactive)
same,GI50,COLO 205,> 100 µM (inactive)
same,GI50,786-0,52 µM (inactive)
same,GI50,HOP-62,27.4 µM (inactive)
CCOC(=O)c1nc2ccc(C(F)(F)F)cc2nc1Nc1ccc(OC)cc1,GI50,SW-620,> 100 µM (inactive)
same,GI50,UACC-62,55.7 µM (inactive)
same,GI50,T47D,> 100 µM (inactive)
same,GI50,NCI/ADR-RES,63.2 µM (inactive)
same,GI50,PC-3,49.7 µM (inactive)
same,GI50,UACC-257,> 100 µM (inactive)
same,GI50,M14,84.1 µM (inactive)
same,GI50,SF-295,26.9 µM (inactive)
same,GI50,HT-29,> 100 µM (inactive)
same,GI50,LOX IMVI,> 100 µM (inactive)
same,GI50,MDA-MB-231,17.7 µM (inactive)
same,GI50,Malme-3M,> 100 µM (inactive)
same,GI50,SF-539,33 µM (inactive)
same,GI50,ACHN,55 µM (inactive)
same,GI50,NCI-H226,32.5 µM (inactive)
same,GI50,BT-549,27.9 µM (inactive)
same,GI50,HOP-92,12 µM (inactive)
same,GI50,SF-268,46.2 µM (inactive)
same,GI50,A549,50.1 µM (inactive)
same,GI50,DU-145,> 100 µM (inactive)
same,GI50,SNB-75,93.5 µM (inactive)
same,GI50,Hs-578T,35.2 µM (inactive)
same,GI50,HCT-15,> 100 µM
same,GI50,NCI-H23,49.1 µM (inactive)
same,GI50,MOLT-4,> 100 µM (inactive)
same,GI50,K562,68.2 µM (inactive)
same,GI50,OVCAR-4,18.6 µM (inactive)
same,GI50,OVCAR-3,27.7 µM (inactive)
same,GI50,TK-10,> 100 µM (inactive)
same,GI50,UO-31,> 100 µM (inactive)
same,GI50,IGROV-1,36.6 µM (inactive)
same,GI50,SK-MEL-2,71.9 µM (inactive)
same,GI50,SNB-19,33.6 µM (inactive)
same,GI50,SK-MEL-28,> 100 µM (inactive)
same,GI50,NCI-H522,36.5 µM (inactive)
same,GI50,SK-MEL-5,54.7 µM (inactive)
same,GI50,SR,> 100 µM (inactive)
same,GI50,MDA-MB-435,> 100 µM (inactive)
same,GI50,EKVX,98.9 µM (inactive)
same,GI50,HL-60,> 100 µM (inactive)
same,GI50,MCF7,> 100 µM (inactive)
same,GI50,U-251,27.5 µM (inactive)
same,GI50,RXF 393,22.1 µM (inactive)
same,GI50,A498,44.8 µM (inactive)
same,GI50,HCC 2998,> 100 µM (inactive)
same,GI50,NCI-H460,41.1 µM (inactive)
same,GI50,KM12,> 100 µM (inactive)
same,GI50,CCRF-CEM,> 100 µM (inactive)
same,GI50,RPMI-8226,> 100 µM (inactive)
same,GI50,OVCAR-5,> 100 µM (inactive)
same,GI50,HCT-116,56.4 µM (inactive)
same,GI50,OVCAR-8,> 100 µM (inactive)
same,GI50,COLO 205,> 100 µM (inactive)
same,GI50,786-0,25.8 µM (inactive)
same,GI50,HOP-62,24.3 µM (inactive)
Nc1ccc(/N=N\c2ccc(-c3ccc(O)cc3)cc2)c2ccc(S(=O)(=O)O)cc12,GI50,SW-620,> 100 µM (inactive)
same,GI50,UACC-62,> 100 µM (inactive)
same,GI50,T47D,> 100 µM (inactive)
same,GI50,NCI/ADR-RES,> 100 µM (inactive)
same,GI50,PC-3,> 100 µM (inactive)
same,GI50,UACC-257,> 100 µM (inactive)
same,GI50,M14,> 100 µM (inactive)
same,GI50,SF-295,> 100 µM (inactive)
same,GI50,HT-29,> 100 µM (inactive)
same,GI50,LOX IMVI,> 100 µM (inactive)
same,GI50,MDA-MB-231,> 100 µM (inactive)
same,GI50,Malme-3M,> 100 µM (inactive)
same,GI50,SF-539,> 100 µM (inactive)
same,GI50,ACHN,> 100 µM (inactive)
same,GI50,NCI-H226,> 100 µM (inactive)
same,GI50,BT-549,> 100 µM (inactive)
same,GI50,HOP-92,> 100 µM (inactive)
same,GI50,SF-268,> 100 µM (inactive)
same,GI50,A549,> 100 µM (inactive)
same,GI50,DU-145,> 100 µM (inactive)
same,GI50,SNB-75,77.1 µM (inactive)
same,GI50,Hs-578T,> 100 µM (inactive)
same,GI50,HCT-15,> 100 µM
same,GI50,NCI-H23,> 100 µM (inactive)
same,GI50,MOLT-4,> 100 µM (inactive)
same,GI50,K562,> 100 µM (inactive)
same,GI50,OVCAR-4,> 100 µM (inactive)
same,GI50,OVCAR-3,> 100 µM (inactive)
same,GI50,TK-10,> 100 µM (inactive)
same,GI50,UO-31,> 100 µM (inactive)
same,GI50,IGROV-1,> 100 µM (inactive)
same,GI50,SK-MEL-2,> 100 µM (inactive)
same,GI50,SNB-19,> 100 µM (inactive)
same,GI50,SK-MEL-28,> 100 µM (inactive)
same,GI50,NCI-H522,> 100 µM (inactive)
same,GI50,SK-MEL-5,> 100 µM (inactive)
same,GI50,SN12C,> 100 µM (inactive)
same,GI50,SR,> 100 µM (inactive)
same,GI50,MDA-MB-435,> 100 µM (inactive)
same,GI50,EKVX,> 100 µM (inactive)
same,GI50,HL-60,> 100 µM (inactive)
same,GI50,MCF7,> 100 µM (inactive)
same,GI50,U-251,> 100 µM (inactive)
same,GI50,SK-OV-3,> 100 µM (inactive)
same,GI50,RXF 393,> 100 µM (inactive)
same,GI50,A498,> 100 µM (inactive)
same,GI50,NCI-H460,> 100 µM (inactive)
same,GI50,CAKI-1,> 100 µM (inactive)
same,GI50,KM12,> 100 µM (inactive)
same,GI50,CCRF-CEM,> 100 µM (inactive)
same,GI50,RPMI-8226,> 100 µM (inactive)
same,GI50,OVCAR-5,> 100 µM (inactive)
same,GI50,HCT-116,> 100 µM (inactive)
same,GI50,OVCAR-8,> 100 µM (inactive)
same,GI50,COLO 205,> 100 µM (inactive)
same,GI50,786-0,> 100 µM (inactive)
same,GI50,HOP-62,> 100 µM (inactive)
